Source: publication PMC12749626, “Expediting hit-to-lead progression in drug discovery through reaction prediction and multi-dimensional optimization” (Nature Communications, 2025)

Experiments:
Details in all cases: 10 uM; n=2
HISTAMINE H3 REC. = HISTAMINE H3 REC. (Homo sapiens, UniProt Q9Y5N1)
MONOAMINE OXIDASE-A = MONOAMINE OXIDASE-A (Homo sapiens, UniProt P21397)
PROSTAGLANDIN F REC. = PROSTAGLANDIN F REC. (Homo sapiens, UniProt P43088)
XANTHINE OXIDASE = XANTHINE OXIDASE (Bos taurus, UniProt P80457)
Sequence of XANTHINE OXIDASE (P80457 2-1332): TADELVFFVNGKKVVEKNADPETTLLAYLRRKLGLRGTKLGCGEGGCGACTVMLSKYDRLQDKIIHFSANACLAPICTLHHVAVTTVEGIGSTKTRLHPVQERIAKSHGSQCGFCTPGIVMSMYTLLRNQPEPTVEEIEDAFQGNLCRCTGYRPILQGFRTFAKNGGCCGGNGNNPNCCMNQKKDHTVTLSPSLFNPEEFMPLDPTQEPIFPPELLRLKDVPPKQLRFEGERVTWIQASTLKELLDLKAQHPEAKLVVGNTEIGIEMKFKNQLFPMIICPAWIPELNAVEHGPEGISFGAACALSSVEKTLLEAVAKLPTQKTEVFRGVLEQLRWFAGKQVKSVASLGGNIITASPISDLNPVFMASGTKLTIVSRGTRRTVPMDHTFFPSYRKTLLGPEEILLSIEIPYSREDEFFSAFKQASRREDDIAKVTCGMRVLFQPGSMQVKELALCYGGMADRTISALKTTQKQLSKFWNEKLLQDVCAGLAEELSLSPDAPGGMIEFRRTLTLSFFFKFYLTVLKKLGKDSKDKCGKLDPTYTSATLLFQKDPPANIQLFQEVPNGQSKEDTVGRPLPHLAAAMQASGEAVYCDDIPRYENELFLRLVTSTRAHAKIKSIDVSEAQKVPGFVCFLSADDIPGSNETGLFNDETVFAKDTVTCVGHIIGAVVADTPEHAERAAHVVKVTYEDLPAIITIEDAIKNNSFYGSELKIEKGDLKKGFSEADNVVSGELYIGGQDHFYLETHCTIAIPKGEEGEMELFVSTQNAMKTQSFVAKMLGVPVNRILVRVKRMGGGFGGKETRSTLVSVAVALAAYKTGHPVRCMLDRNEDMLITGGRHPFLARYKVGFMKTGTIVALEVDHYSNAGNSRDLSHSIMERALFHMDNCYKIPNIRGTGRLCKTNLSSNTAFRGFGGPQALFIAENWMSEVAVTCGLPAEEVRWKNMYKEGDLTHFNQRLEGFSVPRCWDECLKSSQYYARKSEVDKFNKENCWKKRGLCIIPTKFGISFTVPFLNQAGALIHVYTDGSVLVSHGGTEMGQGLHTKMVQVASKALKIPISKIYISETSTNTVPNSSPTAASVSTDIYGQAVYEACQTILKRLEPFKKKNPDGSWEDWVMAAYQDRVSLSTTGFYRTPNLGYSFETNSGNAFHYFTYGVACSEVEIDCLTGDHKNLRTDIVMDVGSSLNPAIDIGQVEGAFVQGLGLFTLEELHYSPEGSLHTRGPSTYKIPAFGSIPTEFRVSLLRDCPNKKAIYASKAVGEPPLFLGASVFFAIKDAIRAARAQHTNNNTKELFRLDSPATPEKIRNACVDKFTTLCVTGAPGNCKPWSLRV

Sequence of UniProt P43088 (P43088 whole entry): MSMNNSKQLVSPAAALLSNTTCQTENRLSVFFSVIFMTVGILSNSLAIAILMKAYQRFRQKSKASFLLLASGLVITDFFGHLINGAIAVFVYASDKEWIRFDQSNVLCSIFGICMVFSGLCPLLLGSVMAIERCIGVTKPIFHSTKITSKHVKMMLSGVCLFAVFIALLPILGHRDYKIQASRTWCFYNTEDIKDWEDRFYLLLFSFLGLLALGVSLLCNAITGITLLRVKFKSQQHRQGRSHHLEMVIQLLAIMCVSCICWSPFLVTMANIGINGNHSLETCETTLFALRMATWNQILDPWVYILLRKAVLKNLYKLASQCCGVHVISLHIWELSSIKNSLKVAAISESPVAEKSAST
Sequence of MONOAMINE OXIDASE-A (P21397 whole entry): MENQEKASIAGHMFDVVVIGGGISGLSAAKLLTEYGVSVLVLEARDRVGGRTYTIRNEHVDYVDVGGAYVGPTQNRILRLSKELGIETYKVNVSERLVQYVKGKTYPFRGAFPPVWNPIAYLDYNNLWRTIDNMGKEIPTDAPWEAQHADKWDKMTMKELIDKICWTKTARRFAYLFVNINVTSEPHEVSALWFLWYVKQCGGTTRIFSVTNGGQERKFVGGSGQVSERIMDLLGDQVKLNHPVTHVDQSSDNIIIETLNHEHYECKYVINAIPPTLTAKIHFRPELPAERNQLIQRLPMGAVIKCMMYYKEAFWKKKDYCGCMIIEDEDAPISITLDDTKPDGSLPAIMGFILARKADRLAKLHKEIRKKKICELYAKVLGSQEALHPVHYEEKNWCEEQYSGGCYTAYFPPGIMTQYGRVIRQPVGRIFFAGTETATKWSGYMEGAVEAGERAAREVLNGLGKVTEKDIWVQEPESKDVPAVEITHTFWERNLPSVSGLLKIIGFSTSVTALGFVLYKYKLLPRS
Sequence of HISTAMINE H3 REC. (Q9Y5N1 whole entry): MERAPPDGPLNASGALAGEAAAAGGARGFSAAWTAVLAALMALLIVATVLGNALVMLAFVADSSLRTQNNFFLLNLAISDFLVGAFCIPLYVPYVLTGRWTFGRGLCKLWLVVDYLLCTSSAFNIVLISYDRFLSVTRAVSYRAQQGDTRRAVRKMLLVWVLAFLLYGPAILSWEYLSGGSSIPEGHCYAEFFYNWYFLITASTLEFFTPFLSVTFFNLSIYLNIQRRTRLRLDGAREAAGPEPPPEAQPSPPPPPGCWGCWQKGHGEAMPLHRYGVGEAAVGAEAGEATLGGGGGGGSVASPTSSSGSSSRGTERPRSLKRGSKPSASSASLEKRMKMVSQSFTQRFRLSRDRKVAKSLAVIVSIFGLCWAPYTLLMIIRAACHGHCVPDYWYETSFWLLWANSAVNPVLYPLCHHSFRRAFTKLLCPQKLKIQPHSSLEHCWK

O=C(c1ccc2nc(-c3cnccc3C3(C4CCC4)CC3)oc2c1)N1CCN(c2nc3nc(Cl)ccc3o2)CC1 [Compound 27]
HISTAMINE H3 REC. percent activity or inhibition compared to the assay reference (HISTAMINE H3 REC.): 15%
MONOAMINE OXIDASE-A percent activity or inhibition compared to the assay reference (MONOAMINE OXIDASE-A): -2%
PROSTAGLANDIN F REC. percent activity or inhibition compared to the assay reference (PROSTAGLANDIN F REC.): 0%
XANTHINE OXIDASE percent activity or inhibition compared to the assay reference (XANTHINE OXIDASE): 6%
